# Laboratory results from patent US6426331B1, “Inhibitors of STAT function” (Tularik Inc., priority 1998, dated 2002).
# pIC50: −log10 of the molar value.
# Target: T1, STAT6 (Homo sapiens, UniProt P42226)
# T1 sequence (P42226 1-847): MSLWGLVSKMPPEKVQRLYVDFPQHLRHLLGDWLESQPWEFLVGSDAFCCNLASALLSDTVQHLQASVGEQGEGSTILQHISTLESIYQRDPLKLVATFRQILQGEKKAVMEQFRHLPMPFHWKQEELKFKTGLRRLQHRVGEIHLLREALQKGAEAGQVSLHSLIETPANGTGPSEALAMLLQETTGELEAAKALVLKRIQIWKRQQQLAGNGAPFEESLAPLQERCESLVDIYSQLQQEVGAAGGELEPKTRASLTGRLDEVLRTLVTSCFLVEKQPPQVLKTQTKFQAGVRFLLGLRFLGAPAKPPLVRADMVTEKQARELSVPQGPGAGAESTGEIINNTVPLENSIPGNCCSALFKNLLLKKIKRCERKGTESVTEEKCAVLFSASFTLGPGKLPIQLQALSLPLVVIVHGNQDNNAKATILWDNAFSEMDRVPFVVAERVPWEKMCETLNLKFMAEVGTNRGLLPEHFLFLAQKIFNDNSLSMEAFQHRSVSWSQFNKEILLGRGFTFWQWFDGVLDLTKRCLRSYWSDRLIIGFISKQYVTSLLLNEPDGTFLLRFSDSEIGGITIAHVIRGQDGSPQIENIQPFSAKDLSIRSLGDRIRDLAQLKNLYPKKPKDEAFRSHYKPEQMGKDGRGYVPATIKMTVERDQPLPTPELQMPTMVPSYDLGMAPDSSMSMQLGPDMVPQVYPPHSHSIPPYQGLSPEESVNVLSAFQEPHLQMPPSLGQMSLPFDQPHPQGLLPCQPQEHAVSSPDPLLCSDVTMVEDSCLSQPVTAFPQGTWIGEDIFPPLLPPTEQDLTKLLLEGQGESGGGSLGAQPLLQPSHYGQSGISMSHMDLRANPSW
# Assay: Inhibition of STAT6 binding (duplex formation)
# Method: The compounds of the present invention can be evaluated for STAT binding activity using methods such as those described in U.S. Pat. No. 6,207,391 (for STAT6 binding). Other assays for STAT binding can be found in, for example, U.S. Pat. Nos. 5,618,693, 5,639,858 and 5,756,700.
# Using methods similar to those described in Examples 1 and 2, the compounds provided in Table 1 were prepared and evaluated as inhibitors of STAT6 binding (duplex formation). The assay is described in U.S. Pat. No. 6,207,391, filed Mar. 31, 1998. In each of the tables below: a + symbol indicates and IC50 of >100 μM; a ++ symbol indicates and IC50 of 50-100 μM; a +++ symbol indicates and IC50 of 1-50 μM; and a ++++ symbol indicates and IC50 of <1.0 μM.
# [1] = Table 1, inhibitors of STAT6 binding (duplex formation)
smiles,measurement,setting,value
CC(C)(C)[C@H](NC(=O)/C=C/c1ccc(CP(=O)(O)O)cc1)C(=O)N1CCC[C@H]1C(=O)N(c1ccccc1)c1ccc(C(N)=O)cc1,pIC50,"Table 2, STAT6 binding",4.30 to 6.00
CC(C)(C)[C@H](NC(=O)/C=C/c1cccc(CP(=O)(O)O)c1)C(=O)N1CCC[C@H]1C(=O)N(c1ccccc1)c1ccc(C(N)=O)cc1,pIC50,"Table 2, STAT6 binding",< 4.00
CC(C)(C)[C@H](NC(=O)/C=C/c1ccc(C(O)P(=O)(O)O)cc1)C(=O)N1CCC[C@H]1C(=O)N(c1ccccc1)c1ccc(C(N)=O)cc1 (stereo partly shown),pIC50,"Table 2, STAT6 binding",4.30 to 6.00
CC(C)(C)[C@H](NC(=O)/C=C/c1ccc(C(F)(F)P(=O)(O)O)cc1)C(=O)N1CCC[C@H]1C(=O)N(c1ccccc1)c1ccc(C(N)=O)cc1,pIC50,"Table 2, STAT6 binding",> 6.00
CC(C)(C)[C@H](NC(=O)/C=C/c1ccc(P(=O)(O)O)cc1)C(=O)N1CCC[C@H]1C(=O)N(c1ccccc1)c1ccc(C(N)=O)cc1,pIC50,"Table 2, STAT6 binding",4.30 to 6.00
COc1cc(/C=C/C(=O)N[C@H](C(=O)N2CCC[C@H]2C(=O)N(c2ccccc2)c2ccc(C(N)=O)cc2)C(C)(C)C)ccc1P(=O)(O)O,pIC50,"Table 2, STAT6 binding",4.30 to 6.00
CC(C)(C)[C@H](NC(=O)/C=C/c1ccc(P(=O)(O)O)c(O)c1)C(=O)N1CCC[C@H]1C(=O)N(c1ccccc1)c1ccc(C(N)=O)cc1,pIC50,"Table 2, STAT6 binding",4.30 to 6.00
CC(C)(C)[C@H](NC(=O)/C=C/c1ccc(C(=O)O)cc1)C(=O)N1CCC[C@H]1C(=O)N(c1ccccc1)c1ccc(C(N)=O)cc1,pIC50,"Table 2, STAT6 binding",< 4.00
CC(C)(C)[C@H](NC(=O)/C=C/c1cccc(C(=O)O)c1)C(=O)N1CCC[C@H]1C(=O)N(c1ccccc1)c1ccc(C(N)=O)cc1,pIC50,"Table 2, STAT6 binding",< 4.00
CC(C)(C)[C@H](NC(=O)/C=C/c1ccc(C(=O)O)c(C(=O)O)c1)C(=O)N1CCC[C@H]1C(=O)N(c1ccccc1)c1ccc(C(N)=O)cc1,pIC50,"Table 2, STAT6 binding",4.30 to 6.00
CC(C)(C)[C@H](NC(=O)/C=C/c1cccc(CC(=O)O)c1)C(=O)N1CCC[C@H]1C(=O)N(c1ccccc1)c1ccc(C(N)=O)cc1,pIC50,"Table 2, STAT6 binding",< 4.00
CC(C)(C)[C@H](NC(=O)/C=C/c1ccc(CC(=O)O)cc1)C(=O)N1CCC[C@H]1C(=O)N(c1ccccc1)c1ccc(C(N)=O)cc1,pIC50,"Table 2, STAT6 binding",< 4.00
CC(C)(C)[C@H](NC(=O)/C=C/c1ccc(OCC(=O)O)cc1)C(=O)N1CCC[C@H]1C(=O)N(c1ccccc1)c1ccc(C(N)=O)cc1,pIC50,"Table 2, STAT6 binding",< 4.00
CC(C)(C)[C@H](NC(=O)/C=C/c1ccc(OC(F)(C(=O)O)C(=O)O)cc1)C(=O)N1CCC[C@H]1C(=O)N(c1ccccc1)c1ccc(C(N)=O)cc1,pIC50,"Table 2, STAT6 binding",4.30 to 6.00
CC(C)(C)[C@H](NC(=O)/C=C/c1ccc(C(=O)O)cn1)C(=O)N1CCC[C@H]1C(=O)N(c1ccccc1)c1ccc(C(N)=O)cc1,pIC50,"Table 2, STAT6 binding",< 4.00
CC(C)(C)[C@H](NC(=O)/C=C/c1cccc(C(=O)O)n1)C(=O)N1CCC[C@H]1C(=O)N(c1ccccc1)c1ccc(C(N)=O)cc1,pIC50,"Table 2, STAT6 binding",< 4.00
"CC(C)(C)[C@H](NC(=O)/C=C/c1ccc(C(O)C(=O)O)cc1)C(=O)N1CCC[C@H]1C(=O)N(Cc1ccc(CN)cc1)c1ccc(C(N)=O)cc1 (stereo partly shown) [drawing 46: H, H, 4-CONH2,4-CH2NH2]",pIC50,[1],4.30 to 6.00
"CC(C)(C)[C@H](NC(=O)/C=C/c1ccc(C(O)C(=O)O)cc1)C(=O)N1CCC[C@H]1C(=O)N(Cc1ccccc1)c1ccc(C(=O)Nc2ccccc2)cc1 (stereo partly shown) [drawing 46: H, H, 4-CONHPh, H]",pIC50,[1],< 4.00
"CC(C)(C)[C@H](NC(=O)/C=C/c1ccc(C(O)C(=O)O)cc1)C(=O)N1C[C@H](N(Cc2ccccc2)Cc2ccccc2)C[C@H]1C(=O)N(Cc1ccccc1)c1ccc(C(N)=O)cc1 (stereo partly shown) [drawing 46: H, —N(Bn)2,4-CONH2, H]",pIC50,[1],< 4.00
"CN(C)[C@@H]1C[C@@H](C(=O)N(Cc2ccccc2)c2ccc(C(N)=O)cc2)N(C(=O)[C@@H](NC(=O)/C=C/c2ccc(C(O)C(=O)O)cc2)C(C)(C)C)C1 (stereo partly shown) [drawing 46: H, —N(CH3)2,4-CONH2, H]",pIC50,[1],4.00 to 4.30
"CC(C)(C)[C@H](NC(=O)/C=C/c1ccc(C(O)C(=O)O)cc1)C(=O)N1C[C@H](N)C[C@H]1C(=O)N(Cc1ccccc1)c1ccc(C(N)=O)cc1 (stereo partly shown) [drawing 46: H, —NH2,4-CONH2, H]",pIC50,[1],4.30 to 6.00
"Cc1ccc(S(=O)(=O)N[C@@H]2C[C@@H](C(=O)N(Cc3ccccc3)c3ccc(C(N)=O)cc3)N(C(=O)[C@@H](NC(=O)/C=C/c3ccc(C(O)C(=O)O)cc3)C(C)(C)C)C2)cc1 (stereo partly shown) [drawing 46: H, —NH-Tosyl, 4-CONH2, H]",pIC50,[1],< 4.00
"CC(=O)N[C@@H]1C[C@@H](C(=O)N(Cc2ccccc2)c2ccc(C(N)=O)cc2)N(C(=O)[C@@H](NC(=O)/C=C/c2ccc(C(O)C(=O)O)cc2)C(C)(C)C)C1 (stereo partly shown) [drawing 46: H, —NHAc, 4-CONH2, H]",pIC50,[1],4.30 to 6.00
"CC(C)(C)[C@H](NC(=O)/C=C/c1ccc(C(O)C(=O)O)cc1)C(=O)N1C[C@H](NC(=O)c2ccccc2)C[C@H]1C(=O)N(Cc1ccccc1)c1ccc(C(N)=O)cc1 (stereo partly shown) [drawing 46: H, —NHBz, 4-CONH2, H]",pIC50,[1],4.30 to 6.00
"CC(C)(C)[C@H](NC(=O)/C=C/c1ccc(C(O)C(=O)O)cc1)C(=O)N1C[C@H](NC(=O)OCc2ccccc2)C[C@H]1C(=O)N(Cc1ccccc1)c1ccc(C(N)=O)cc1 (stereo partly shown) [drawing 46: H, —NHCO2Bn, 4-CONH2, H]",pIC50,[1],4.30 to 6.00
"CC(C)C(=O)N[C@@H]1C[C@@H](C(=O)N(Cc2ccccc2)c2ccc(C(N)=O)cc2)N(C(=O)[C@@H](NC(=O)/C=C/c2ccc(C(O)C(=O)O)cc2)C(C)(C)C)C1 (stereo partly shown) [drawing 46: H, —NHCOCH(CH3)2, 4-CONH2, H]",pIC50,[1],4.30 to 6.00
"CC(C)(C)[C@H](NC(=O)/C=C/c1ccc(C(O)C(=O)O)cc1)C(=O)N1C[C@H](NS(C)(=O)=O)C[C@H]1C(=O)N(Cc1ccccc1)c1ccc(C(N)=O)cc1 (stereo partly shown) [drawing 46: H, —NHSO2CH3,4-CONH2, H]",pIC50,[1],4.30 to 6.00
"CC(=O)N[C@H]1C[C@@H](C(=O)N(Cc2ccccc2)c2ccc(C(N)=O)cc2)N(C(=O)[C@@H](NC(=O)/C=C/c2ccc(C(O)C(=O)O)cc2)C(C)(C)C)C1 (stereo partly shown) [drawing 46: —NHAC, H, 4-CONH2, H]",pIC50,[1],4.30 to 6.00
Cc1ccc(N(C(=O)C2CCCN2C(=O)C(NC(=O)C=Cc2ccc(OP(=O)(O)O)cc2)C(C)(C)C)c2ccccc2)cc1 (stereo not shown) [drawing 69: CH3],pIC50,"Table 3, STAT6 binding",> 6.00
COC(=O)c1ccc(N(C(=O)C2CCCN2C(=O)C(NC(=O)C=Cc2ccc(OP(=O)(O)O)cc2)C(C)(C)C)c2ccccc2)cc1 (stereo not shown) [drawing 69: CO2CH3],pIC50,"Table 3, STAT6 binding",> 6.00
CC(C)(C)C(NC(=O)C=Cc1ccc(OP(=O)(O)O)cc1)C(=O)N1CCCC1C(=O)N(c1ccccc1)c1ccc(C(=O)O)cc1 (stereo not shown) [drawing 69: CO2H],pIC50,"Table 3, STAT6 binding",4.30 to 6.00
CC(C)(C)C(NC(=O)C=Cc1ccc(OP(=O)(O)O)cc1)C(=O)N1CCCC1C(=O)N(c1ccccc1)c1ccc(C(N)=O)cc1 (stereo not shown) [drawing 69: CONH2],pIC50,"Table 3, STAT6 binding",> 6.00
CC(C)(C)C(NC(=O)C=Cc1ccc(OP(=O)(O)O)cc1)C(=O)N1CCCC1C(=O)N(c1ccccc1)c1ccc(Cl)cc1 (stereo not shown) [drawing 69: Cl],pIC50,"Table 3, STAT6 binding",> 6.00
CC(C)(C)C(NC(=O)C=Cc1ccc(OP(=O)(O)O)cc1)C(=O)N1CCCC1C(=O)N(c1ccccc1)c1ccccc1 (stereo not shown) [drawing 69: H],pIC50,"Table 3, STAT6 binding",> 6.00
CC(C)(C)C(NC(=O)C=Cc1ccc(OP(=O)(O)O)cc1)C(=O)N1CCCC1C(=O)N(c1ccccc1)c1ccc(I)cc1 (stereo not shown) [drawing 69: I],pIC50,"Table 3, STAT6 binding",> 6.00
COc1ccc(N(C(=O)C2CCCN2C(=O)C(NC(=O)C=Cc2ccc(OP(=O)(O)O)cc2)C(C)(C)C)c2ccccc2)cc1 (stereo not shown) [drawing 69: OCH3],pIC50,"Table 3, STAT6 binding",> 6.00
"CC(=O)NCc1cccc(N(Cc2ccc(C(N)=O)cc2)C(=O)C2CCCN2C(=O)C(NC(=O)C=Cc2ccc(OP(=O)(O)O)cc2)C(C)(C)C)c1 (stereo not shown) [drawing 70: 3-CH2NHAc, 4-CONH2]",pIC50,"Table 4, STAT6 binding",> 6.00
